Reference: patent publication US11279707B2, “NEK inhibitors and methods of use” (DANA-FARBER CANCER INSTITUTE, INC., priority 2017, dated 2022)

How the values were obtained:
Type in all cases: biochemical
[1] = molecular target: CLK; test: kinase inhibition, CLK
[2] = molecular target: T1, NEK9 (Homo sapiens, UniProt Q8TD19); test: kinase inhibition, NEK9
T1 sequence (Q8TD19 1-979): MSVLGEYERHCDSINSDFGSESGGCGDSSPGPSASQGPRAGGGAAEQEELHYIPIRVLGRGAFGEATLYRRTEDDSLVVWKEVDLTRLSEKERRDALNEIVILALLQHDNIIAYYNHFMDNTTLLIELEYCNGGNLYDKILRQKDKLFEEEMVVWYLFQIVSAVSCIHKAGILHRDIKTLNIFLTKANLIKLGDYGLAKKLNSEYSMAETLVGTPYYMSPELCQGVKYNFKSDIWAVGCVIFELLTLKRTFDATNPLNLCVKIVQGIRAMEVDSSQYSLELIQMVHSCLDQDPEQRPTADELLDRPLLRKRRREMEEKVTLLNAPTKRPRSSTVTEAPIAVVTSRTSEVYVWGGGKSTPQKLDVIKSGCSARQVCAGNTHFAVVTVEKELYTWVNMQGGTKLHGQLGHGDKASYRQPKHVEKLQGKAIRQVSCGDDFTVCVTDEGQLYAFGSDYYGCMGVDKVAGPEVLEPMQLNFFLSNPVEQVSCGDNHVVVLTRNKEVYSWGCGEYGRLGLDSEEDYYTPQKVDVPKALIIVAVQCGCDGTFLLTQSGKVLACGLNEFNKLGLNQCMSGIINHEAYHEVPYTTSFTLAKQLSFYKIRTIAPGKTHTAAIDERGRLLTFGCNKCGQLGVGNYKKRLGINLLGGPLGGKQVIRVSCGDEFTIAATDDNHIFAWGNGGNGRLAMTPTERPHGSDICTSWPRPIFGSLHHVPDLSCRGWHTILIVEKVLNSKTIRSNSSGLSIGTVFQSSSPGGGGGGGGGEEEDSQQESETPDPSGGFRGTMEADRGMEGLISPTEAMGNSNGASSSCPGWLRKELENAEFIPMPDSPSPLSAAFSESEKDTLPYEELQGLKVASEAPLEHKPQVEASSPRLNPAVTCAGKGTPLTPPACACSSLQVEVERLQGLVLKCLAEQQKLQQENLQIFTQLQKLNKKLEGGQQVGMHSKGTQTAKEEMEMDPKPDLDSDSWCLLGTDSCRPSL

[3] = molecular target: T2, MERTK (Homo sapiens, UniProt Q12866); test: kinase inhibition, MERTK
T2 sequence (Q12866 21-999): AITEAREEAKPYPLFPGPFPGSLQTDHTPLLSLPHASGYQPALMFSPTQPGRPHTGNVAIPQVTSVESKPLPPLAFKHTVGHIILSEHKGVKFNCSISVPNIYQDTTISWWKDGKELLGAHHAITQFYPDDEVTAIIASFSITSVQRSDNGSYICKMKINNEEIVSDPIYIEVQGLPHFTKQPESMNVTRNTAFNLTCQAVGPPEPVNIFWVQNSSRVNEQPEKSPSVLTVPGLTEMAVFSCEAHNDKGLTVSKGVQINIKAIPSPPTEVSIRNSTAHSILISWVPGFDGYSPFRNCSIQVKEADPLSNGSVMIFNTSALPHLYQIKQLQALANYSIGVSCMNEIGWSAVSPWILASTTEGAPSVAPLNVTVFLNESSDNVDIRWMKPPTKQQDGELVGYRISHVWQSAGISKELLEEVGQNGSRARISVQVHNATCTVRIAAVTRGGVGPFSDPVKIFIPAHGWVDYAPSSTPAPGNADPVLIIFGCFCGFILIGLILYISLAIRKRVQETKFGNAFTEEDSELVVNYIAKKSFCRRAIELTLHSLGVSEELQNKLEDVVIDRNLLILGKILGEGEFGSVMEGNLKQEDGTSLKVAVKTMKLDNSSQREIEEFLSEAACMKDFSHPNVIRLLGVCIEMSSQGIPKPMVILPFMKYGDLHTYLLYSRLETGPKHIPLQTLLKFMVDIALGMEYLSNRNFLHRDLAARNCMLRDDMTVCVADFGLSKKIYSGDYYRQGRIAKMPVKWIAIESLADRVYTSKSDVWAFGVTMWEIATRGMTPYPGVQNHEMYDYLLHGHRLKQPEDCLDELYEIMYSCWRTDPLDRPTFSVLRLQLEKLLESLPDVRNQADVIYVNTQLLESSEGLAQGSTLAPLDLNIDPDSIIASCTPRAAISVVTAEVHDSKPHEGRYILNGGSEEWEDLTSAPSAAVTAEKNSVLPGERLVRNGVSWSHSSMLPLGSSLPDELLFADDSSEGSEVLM

[4] = molecular target: RSK1 (Homo sapiens, UniProt Q15418); test: kinase inhibition, RSK1
[5] = molecular target: NEK7 (Homo sapiens, UniProt Q8TDX7); test: kinase inhibition, NEK7
[6] = molecular target: GRK4 (Homo sapiens, UniProt P32298); test: kinase inhibition, GRK4
Chain of GRK4 (P32298 whole entry, species assumed): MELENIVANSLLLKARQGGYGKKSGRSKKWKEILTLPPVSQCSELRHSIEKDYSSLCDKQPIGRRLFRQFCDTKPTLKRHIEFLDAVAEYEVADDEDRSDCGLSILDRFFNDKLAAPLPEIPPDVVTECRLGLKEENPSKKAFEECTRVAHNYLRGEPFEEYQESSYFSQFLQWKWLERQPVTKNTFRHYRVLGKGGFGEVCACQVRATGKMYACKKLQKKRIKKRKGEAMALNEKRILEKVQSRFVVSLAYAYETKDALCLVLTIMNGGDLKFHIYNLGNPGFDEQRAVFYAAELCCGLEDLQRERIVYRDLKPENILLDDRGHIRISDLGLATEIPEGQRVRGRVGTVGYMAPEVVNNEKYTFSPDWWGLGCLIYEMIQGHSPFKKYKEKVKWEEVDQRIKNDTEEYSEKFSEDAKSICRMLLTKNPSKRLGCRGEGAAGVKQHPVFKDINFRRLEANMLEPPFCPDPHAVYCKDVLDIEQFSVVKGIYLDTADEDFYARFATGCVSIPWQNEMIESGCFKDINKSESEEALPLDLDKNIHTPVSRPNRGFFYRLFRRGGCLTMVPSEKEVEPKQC

Chain of RSK1 (Q15418 whole entry, species assumed): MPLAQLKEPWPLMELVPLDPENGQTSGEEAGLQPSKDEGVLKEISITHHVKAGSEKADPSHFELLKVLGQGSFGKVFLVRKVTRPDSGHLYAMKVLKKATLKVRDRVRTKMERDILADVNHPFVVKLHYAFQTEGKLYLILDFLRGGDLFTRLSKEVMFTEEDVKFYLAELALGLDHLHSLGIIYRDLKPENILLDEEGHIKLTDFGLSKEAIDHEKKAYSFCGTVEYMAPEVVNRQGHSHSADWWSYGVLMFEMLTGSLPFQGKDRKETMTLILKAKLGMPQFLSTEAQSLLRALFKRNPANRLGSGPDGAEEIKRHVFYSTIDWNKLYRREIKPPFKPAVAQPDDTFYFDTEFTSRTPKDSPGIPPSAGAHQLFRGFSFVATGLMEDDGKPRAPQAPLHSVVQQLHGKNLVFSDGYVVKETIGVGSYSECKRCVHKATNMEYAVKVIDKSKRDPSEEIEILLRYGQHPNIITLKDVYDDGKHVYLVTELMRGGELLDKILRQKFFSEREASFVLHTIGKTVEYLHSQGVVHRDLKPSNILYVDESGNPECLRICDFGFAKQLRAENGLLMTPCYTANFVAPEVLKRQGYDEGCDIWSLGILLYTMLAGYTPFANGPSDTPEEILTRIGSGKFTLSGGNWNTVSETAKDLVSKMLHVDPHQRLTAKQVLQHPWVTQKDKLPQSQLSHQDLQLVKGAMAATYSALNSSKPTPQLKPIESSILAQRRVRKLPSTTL
Chain of NEK7 (Q8TDX7 whole entry, species assumed): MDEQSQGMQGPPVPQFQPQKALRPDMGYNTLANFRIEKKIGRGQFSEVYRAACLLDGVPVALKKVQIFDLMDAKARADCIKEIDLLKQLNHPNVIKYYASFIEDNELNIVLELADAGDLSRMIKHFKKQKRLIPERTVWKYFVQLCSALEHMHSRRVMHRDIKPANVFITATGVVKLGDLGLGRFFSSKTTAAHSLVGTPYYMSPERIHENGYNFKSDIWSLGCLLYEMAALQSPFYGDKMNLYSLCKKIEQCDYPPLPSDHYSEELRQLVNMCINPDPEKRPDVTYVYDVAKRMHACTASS

| IC50 [1] [nM] | IC50 [3] [nM] | IC50 [4] [nM] | IC50 [5] [nM] | IC50 [6] [nM] | SMILES | IC50 [2] [nM] |
| --- | --- | --- | --- | --- | --- | --- |
| 250 to 1000 | ≥ 5000 | 1000 to 5000 | 50 to 250 |  | COc1cc(N2CCC(O)CC2)ccc1Nc1ncc2c(n1)n1c(cc3ccccc31)c(=O)n2C [Compound I-2] | 50 to 250 |
| 50 to 250 | 250 to 1000 | 50 to 250 | 250 to 1000 | 1000 to 5000 | CN1CCN(c2ccc(Nc3ncc4c(n3)n3c(cc5ccccc53)c(=O)n4C)cc2)CC1 [Compound I-1] | ≤ 50 |
| 50 to 250 | ≥ 5000 | 50 to 250 | 50 to 250 |  | COc1cc(C2CCN(C)CC2)ccc1Nc1ncc2c(n1)n1c(cc3ccccc31)c(=O)n2C [Compound I-6] | 50 to 250 |
| 50 to 250 | ≥ 5000 | 250 to 1000 | 1000 to 5000 |  | COc1cc(C(=O)N2CCC(N3CCN(C)CC3)CC2)ccc1Nc1ncc2c(n1)n1c(cc3ccccc31)c(=O)n2C [Compound I-4] | 250 to 1000 |
| 1000 to 5000 | 1000 to 5000 | 1000 to 5000 | 1000 to 5000 |  | CN1CCN(c2ccc(Nc3ncc4c(n3)n3c(cc5ccccc53)c(=O)n4C)cc2C(F)(F)F)CC1 [Compound I-5] | 50 to 250 |
| 1000 to 5000 | ≥ 5000 | 250 to 1000 | 50 to 250 |  | COc1cc(N2CCN(C)CC2)ccc1Nc1ncc2c(n1)n1c(cc3ccccc31)c(=O)n2C [Compound I-3] | 50 to 250 |
